The values that follow come from US12480089B2, “Antiviral treatment comprising Blis containing probiotic products” (BLIS TECHNOLOGIES LIMITED, priority 2020, dated 2025).

What all share (format): cell-based
One assay deals with Influenza A virus H3N2. Put plainly: Neutral red CPE assay, Influenza A in MDCK cells. The note with it: strain samples: resuspension medium DMEM, time to produce antiviral activity 6. As for the experimental part:
The antiviral activity of S. salivarius sample preparations were evaluated against severe acute respiratory syndrome coronavirus 2 (SARS-CoV-2) and Influenza A virus H3N2 in neutral red (NR) assays to evaluate inhibition of viral-induced cytopathic effect (CPE).
Neutral red assay: Samples were received frozen on dry ice and stored at −20° C. upon arrival. All 10 samples were serially diluted in test medium using 4 1:2 dilutions so that the starting (high) test concentration was 50% sample. Each dilution was added to 5 wells of a 96-well plate with 80-90% confluent Vero 76 (SARS-CoV-2) or MDCK (Influenza) cells.
Three wells of each dilution were infected with virus, and two wells remained uninfected as toxicity controls. On each plate, six untreated wells were infected as virus controls, and six untreated wells were left uninfected to use as cell controls.
Viruses were diluted to a specific 50% cell culture infectious dose (CCID50) per mL to achieve the lowest possible multiplicity of infection (MOI) that would yield >80% cytopathic effect (CPE) within 3-5 days. […]
Supernatant dye was removed, wells rinsed with PBS, and the incorporated dye was extracted in 50:50 Sorensen citrate buffer/ethanol for >30 minutes and the optical density was read on a spectrophotometer at 540 nm. […]

The next assay relates to RSV (A2 strain). The conditions noted are these: MA-104, DMEM, max CPE day 6.
Assay [1] relates to influenza B (Brisbane/60/2008 strain). As to the kind of experiment: Neutral red CPE assay, influenza B in MDCK cells. The conditions noted are these: DMEM + trypsin + EDTA, max CPE day 3. The method, then:
K12 and M18 were tested for in vitro antiviral activity against RSV (A2 strain) and influenza B (Brisbane/60/2008 strain).
Samples were serially diluted using four 2-fold dilutions in media so that the starting (high) test concentration was 50%. Media for MDCK cells included DMEM+10 U/ml trypsin+1 ug/mL EDTA. Each dilution was added to 5 wells of a 96-well plate with 80-100% confluent cells. Three wells of each dilution were infected with virus, and two wells remained uninfected as toxicity controls. Six wells were infected and untreated as virus controls, and six wells were uninfected and untreated as cell controls. A positive control compound, ribavirin, was tested in parallel. Plates were incubated at 37±2° C., 5% CO2.
Once untreated virus control wells reached maximum CPE on the day indicated in the table below, plates were stained with neutral red dye for approximately 2 hours (±15 minutes). Supernatant dye was removed and wells rinsed with PBS, and the incorporated dye was extracted in 50:50 Sorensen citrate buffer/ethanol for >30 minutes and the optical density was read on a spectrophotometer at 540 nm.
The selective index (SI) is the CC50 divided by EC50.

The test system of assay [2] is SARS-CoV-2, USA-WA1/2020 strain.

A value given as a limit tells only on which side of the number the result lay.

With `NC(=O)c1ncn([C@@H]2O[C@H](CO)[C@@H](O)[C@H]2O)n1` [Ribavirin, ribavirin], the “SI Index” value in the assay on Influenza A virus H3N2 was >590; in the assay on RSV (A2 strain), 14; in assay [1], >320.
For `CCO` [Ethanol], the “Round 1 virus titer” value in assay [2] (30-minute contact at room temperature, 90% preparation and 10% virus solution, virus control 4.2) worked out at 1.1 log 10 CCID50 per 0.1 mL. In addition, the “Round 2 Virus titer” value in assay [2] (30-minute contact at room temperature, 90% preparation and 10% virus stock, virus control 4.0) is on record as <0.67 log 10 CCID50 per 0.1 mL. In addition, the “Log Reduction value” in assay [2] (Round 2, compared to virus control) came to 3.33.
